Experimental data from patent US6627632B2, “Compositions and methods for the treatment of anorectal disorders” (Cellegy Pharmaceuticals, Inc., priority 1998, dated 2003).
Counter-ions that a name gives are not always drawn.

Columns and labels:
internal anal sphincter = experiment: rat internal anal sphincter (IAS) relaxation model: internal anal sphincter pressure (IASP) in anesthetized rats; format: in vivo; details: for relaxation of the rat IAS / reduction of IASP (summary statement in the description): rat IAS in vivo, no dose stated; for potentiation with NTG, comparison of PDE V inhibitors (summary): in vivo model, i.p. PDE V inhibitor plus NTG; for drop of IASP: subsequent dose of 1% nitroglycerin, morning after dibutyryl-cGMP
Procedure: Male Sprague-Dawley rats (300-400 gm) were anesthetized with ketamine (90 mg/kg), xylazine (9 mg/kg) given intramuscularly and supplemented as needed with ⅓^rd dose. Rats were gently restrained on their backs on a heated surgical table (Harvard Apparatus) for the duration of the experiments. The diuretic effects of anesthesia was offset by rehydration with saline through an intraperitoneal implanted 24 gauge angiocatheter (VWR, San Francisco, Calif.). The constriction/relaxation measurement assembly included a Millar catheter/transducer (1.67 mm diameter.) connected to a Digi-Med Low Pressure Analyzer (Micro-Med) accurate for pressure measurements between −50 and 150 mmHg. The data were integrated and converted to waveforms with the Digi-Med System Integrator software. Blood pressure changes were monitored using an arterial catheter/transducer and a Digi-Med Blood Pressure Analyzer with the DMSI software. Respiratory changes were monitored using a mercury strain gauge/transducer, wrapped around the rib-cage of the rat, hooked up to a Digi-Med Analog Signal Analyzer along with the DMSI software. Drug delivery was accomplished through two Hamilton syringes with no dead space using PE 10 tubing adjacent to the catheter sensor.
In this example, male Sprague-Dawley rats (250-300 g each) from Charles River were used. The rats were anesthetized intramuscularly with ketamine (90 mg/kg) and xylazine (9 mg/kg) and kept warm on a heated surgical table. All internal anal sphincter pressures (IASP) were measured with Millar catheter/transducers (MPC-500 mikrotip; Millar Instruments, Houston) on low pressure analyzers and blood pressure analyzers and recorded by DMSI software provided by Micro-Med (Louisville). Rats were provided with saline i.p. for rehydration due to the diuretic effects of the anesthesia and re-anesthetized as needed with approximately ⅓ the original dosage. In most experiments, the IASP was allowed to reach a stable baseline level prior to drug delivery. Drugs were delivered to the anal sphincter mainly via PE 20 tubing attached to the catheter(s) near the sensor(s) from 100 μl or 250 μl Hamilton syringes either manually or by infusion with a programmable Harvard automatic infusion pump.

muscle of the IAS = experiment: in vitro study of NTG-induced increases in cGMP levels in the muscle of the IAS; details: compared with vascular smooth muscle
vascular smooth muscle = experiment: in vitro assay of NTG-induced increases in cGMP levels in vascular smooth muscle
Text: (§1) One issue with chronic or subchronic therapy with nitric oxide or nitric oxide donors such as NTG is the extent of any tachyphylaxis or tolerance to the relaxant effect of nitric oxide. Clinical studies have shown that the human cardiovascular system develops tolerance to nitric oxide donors. […] Thus, it seemed likely that the IAS would also develop tolerance to the effects of nitric oxide upon repeated or prolonged dosing.

[1] = cardiovascular tolerance to repeated NTG dosing, measured in vivo by mean arterial blood pressure; details: rat model, repeated dosing of NTG
Text: as §1

[2] = in 5% DMSO/Acetone:Olive oil 1:1, infused continuously at 20 μg/hour
[3] = in saline, infused continuously to the IAS at 20 μg/hour
[4] = 10 mg in 100 μl 1M2P i.p. 30 minutes prior to NTG bolus doses (20 μg/min every 30 minutes)
[5] = continuously infused at 20 μg/hour in 5% dextrose

Compound: NCCc1cc(O)c(O)cc1O [6-hydroxydopamine]
- course of IASP by day 19 (internal anal sphincter; 200 μg bolus in saline to the IAS each day for 5 days, day 19): partial recovery in IASP
- average IASP below the original baseline pressure (internal anal sphincter; 200 μg bolus in saline to the IAS each day for 5 days, day 22): 36%
- course of IASP through day 16 (internal anal sphincter; 200 μg bolus in saline to the IAS each day for 5 days, through day 16, 11 days after termination of treatment): continuous drop in IASP
- period of prolonged reduction in IASP (internal anal sphincter; following 5 daily topical doses of 200 μg in saline): ≥ 3 week

Compound: CC1=NS(=O)(=O)c2cc(Cl)ccc2N1 [Diazoxide]
- effect on IASP (internal anal sphincter; [2]): dramatic drop in IASP
- relaxation of the rat IAS / reduction of IASP (summary statement in the description) (internal anal sphincter): relaxed the rat IAS in vivo

Compound: CCCC(=O)Nc1ncnc2c1ncn2[C@@H]1O[C@@H]2COP(=O)(O)O[C@H]2[C@H]1OC(=O)CCC [Dibutyryl cAMP, N6,2′-O-Dibutyryladenosine-3′,5′-cyclic monophosphate, sodium salt monohydrate]
- effect on IASP (internal anal sphincter; [3]): minor depression in IASP
- efficacy of cAMP analogs relative to each other (internal anal sphincter; rat model, aqueous-soluble analogs): more efficacious in the rat model than the 8-bromo derivative

Compound: COc1ccc([C@@H]2Sc3ccccc3N(CCN(C)C)C(=O)[C@@H]2OC(C)=O)cc1 [Diltiazem]
- effect on IASP (internal anal sphincter; [3]): dramatic and sustained drop in IASP

Compound: OCCN(CCO)c1nc(N2CCCCC2)c2nc(N(CCO)CCO)nc(N3CCCCC3)c2n1 [Dipyridamole]
- duration of depression of IASP due to NTG relative to the vehicle-treated rat (internal anal sphincter; 10 mg in 100 μl 1M2P i.p. 50 minutes prior to NTG bolus doses (20 μg/min every 30 minutes)): approximately twice
- potentiation with NTG, comparison of PDE V inhibitors (summary) (internal anal sphincter): less striking potentiation with NTG

Compound: CC(C)Cn1c(=O)n(C)c(=O)c2[nH]cnc21 [IBMX, 3-Isobutyl-1-methylxanthine]
- effect on IASP (internal anal sphincter; in 5% DMSO/Acetone:Olive oil 1:1, infused at 200 μg/hour): significant and sustained drop in IASP
- time at which the drop in IASP leveled off (internal anal sphincter; in 5% DMSO/Acetone:Olive oil 1:1, infused at 200 μg/hour, after initiation of the infusion): 1 h
- effect on IASP (internal anal sphincter; [2]): similar

Compound: Clc1ccc2ncnc(NCc3ccc4c(c3)OCO4)c2c1 [MBCQ, 4-((3,4-(Methylenedioxy)benzyl)amino)-6-chloroquinazoline]
- potentiation of NTG (internal anal sphincter; [4]): No noticeable potentiation of NTG
- potentiation with NTG, comparison of PDE V inhibitors (summary) (internal anal sphincter): did not demonstrate significant activity

Compound: O=C(O)c1ccc(C2=C3C=CC(=N3)C(c3ccc(C(=O)O)cc3)=c3ccc([nH]3)=C(c3ccc(C(=O)O)cc3)c3ccc([n-]3)C(c3ccc(C(=O)O)cc3)c3ccc2[n-]3)cc1.[Cl-].[Mn+3] (stereo not shown) [MnTBAP, Mn (III) tetrakis (4-benzoic acid) porphyrin chloride]
- NO enhancing activity (internal anal sphincter; rat IASP model, superoxide scavenger with NTG): did not demonstrate significant NO enhancing activity

Compound: CCCCOc1cc(CC2CNC(=O)N2)ccc1OC (stereo not shown) [RO-20-1724, 4-(3-Butoxy-4-methoxybenzyl)-2-imidazolidinone]
- effect on IASP (internal anal sphincter; [2]): minimal

Compound: Cn1c(=O)c2[nH]cnc2n(C)c1=O [Theophylline]
- effect on IASP (internal anal sphincter; continuously infused at 2 μg/hour in 5% dextrose, 3 hour experiment): minimal drop in average IASP
- effect on IASP (internal anal sphincter; [5]): moderate drop in average IASP
- effect on IASP (internal anal sphincter; continuously infused at 200 μg/hour in 5% dextrose, 4 hour experiment): dramatic and sustained drop in IASP
- relaxation of the rat IAS / reduction of IASP (summary statement in the description) (internal anal sphincter): relaxed the rat IAS

Compound: COc1ccc(CCN(C)CCCC(C#N)(c2ccc(OC)c(OC)c2)C(C)C)cc1OC (stereo not shown) [Verapamil]
- effect on IASP (internal anal sphincter; [3]): dramatic and sustained drop in IASP

Compound: CCCC(=O)Nc1nc2c(ncn2C2OC3COP(=O)([O-])OC3C2OC(=O)CCC)c(=O)[nH]1.[Na+] (stereo not shown) [dibutyryl-cGMP, N2,2′-O-Dibutyrylguanosine-3′,5′-cyclic monophosphate, sodium salt]
- reduction of mean IASP (internal anal sphincter; 20 μl of a 10% solution in saline applied to the anal canal, over 2.5 hours following treatment): 45%
- IASP still reduced (internal anal sphincter; 20 μl of a 10% solution in saline, by the following morning): 34%
- drop of average IASP (internal anal sphincter; 20 μl of a 10% solution in saline, over the last hour prior to terminating the experiment): 60%
- lowering of IASP (internal anal sphincter; further dose after IASP returned to pre-treatment levels, over the ensuing 3 hours and 10 minutes): 15%

Compound: Cn1c(=O)c2c(ncn2CC(O)CO)n(C)c1=O (stereo not shown) [dyphylline, 7-(2,3-dihydroxypropyl) theophylline]
- effect on IASP (internal anal sphincter; [5]): IAS relaxing effects
- relaxation of the rat IAS / reduction of IASP (summary statement in the description) (internal anal sphincter): reduce IASP

Compound: CC(C)NCC(O)c1ccc(O)c(O)c1 (stereo not shown) [isoproterenol]
- effect on IASP (internal anal sphincter; 100 μl 1M2P vehicle i.p., 30 minutes later continuous infusion in saline at 0.2 μg/hour (sub-threshold dose)): no significant effect on lowering IASP
- effect on IASP (internal anal sphincter; bolus dose of 200 μg to the IAS): dramatic drop in IASP

Compound: Nc1cc(N2CCCCC2)nc(N)[n+]1[O-] [minoxidil]
- reduction of the IASP (internal anal sphincter; single 20 μl dose of a 4% solution in 62.5% propylene glycol, over 2.5 hours following treatment): 64%

Compound: O=[N+]([O-])OCC(CO[N+](=O)[O-])O[N+](=O)[O-] [nitroglycerin]
- NTG-induced increases in cGMP levels (muscle of the IAS): not as attenuated as those in vascular smooth muscle
- NTG-induced increases in cGMP levels (vascular smooth muscle): attenuated dramatically
- effect on resting IASP (internal anal sphincter; 0.1% NTG in 5% dextrose/water with 1% propylene glycol, bolus doses to the IAS at 20 μg/min every 30 minutes): dramatic drop in resting IASP followed by a complete recovery to resting levels
- nitrate related pressure tolerance (internal anal sphincter; continuous NTG administration, 20 μg/hour, 4 hours): no nitrate related pressure tolerance was noted
- effect on resting IASP (internal anal sphincter; continuous infusion of NTG at 20 μg/hour, 4 hours): steady and sustained decline in resting IASP
- duration of depression of IASP due to NTG (internal anal sphincter; control: vehicle 1M2P 100 μl i.p. 30 minutes prior to NTG bolus doses (20 μg/min every 30 minutes)): constant with each dose
- duration of depression of IASP due to NTG (internal anal sphincter; control: vehicle 1M2P 100 μl i.p. 50 minutes prior to NTG bolus doses (20 μg/min every 30 minutes)): constant with each dose
- duration of depression of IASP due to NTG (internal anal sphincter; control: vehicle 1M2P 100 μl i.p., first NTG dose after 2.75 hours (20 μg/min every 30 minutes)): consistent with each NTG dose
- nitrate related pressure tolerance (internal anal sphincter; repeated NTG bolus administration, 20 μg/min every 30 minutes): no nitrate related pressure tolerance was noted
- tachyphylaxis to the relaxant effect on the IAS (internal anal sphincter; repeated or prolonged dosing in vivo): does not develop
- drop of IASP (internal anal sphincter; first 10 minutes following treatment): 71%
- drop of IASP (internal anal sphincter; for 30 minutes): 24%
- cardiovascular tolerance (mean arterial blood pressure) [1]: develops with repeated dosing

Compound: COc1cc2nc(N3CCN(C(=O)c4ccco4)CC3)nc(N)c2cc1OC [prazosin]
- time after which the drop in IASP plateaued (internal anal sphincter; in 5% DMSO/Acetone:Olive oil 1:1, infused at 20 μg/hour): 1 h
- effect on IASP (internal anal sphincter; [2]): significant and sustained drop in IASP

Compound: COc1ccc(C2CNC(=O)C2)cc1OC1CCCC1 (stereo not shown) [rolipram]
- effect on IASP (internal anal sphincter; [2]): significant drops in IASP followed by shorter recovery phases

Compound: CC(C)(C)NCC(O)c1ccc(O)c(CO)c1 (stereo not shown) [salbutamol]
- short-term effect on IASP (internal anal sphincter; 200 μg in saline delivered to the IAS, alone): no short-term effects on the IASP
- effect on IASP (internal anal sphincter; [3]): significant drop in IASP throughout the experiment

Compound: CC(C)(C)NCC(O)c1cc(O)cc(O)c1 (stereo not shown) [terbutaline]
- effect on IASP (internal anal sphincter; [3]): steady and sustained decline in IASP

Compound: CCCOc1ccccc1-c1nc2nn[nH]c2c(=O)[nH]1 [zaprinast]
- time at which duration of IASP depression by NTG peaked (internal anal sphincter; 10 mg i.p. 2.75 hours prior to NTG bolus doses, time after i.p. dose): 3.5 to 4 h
- duration of IASP depression by NTG (potentiation of NTG) (internal anal sphincter; [4]): increasing duration of IASP depression with consecutive doses of NTG
- duration of IASP depression by NTG (potentiation of NTG) (internal anal sphincter; 10 mg in 100 μl 1M2P i.p. 2.75 hours prior to NTG bolus doses (20 μg/min every 30 minutes)): continued to increase with each NTG dose
- reduction of mean IASP compared with vehicle treatment alone (internal anal sphincter; 20 μL of a 5% solution in 1-methyl-2-pyrrolidinone, over 32 minutes): 21%
